Laboratory results taken from patent EP1234878A1, “USE OF DISEASE-ASSOCIATED GENE” (Takeda Chemical Industries, Ltd., priority 1999, dated 2001).

System: human CLCA1 protein, SEQ ID NO: 2 (human CLCA1 expressing CHO cells)
Test: Cl- ion secretion assay using human CLCA1-expressing CHO cells (MEQ fluorescence, ionomycin stimulation)
Format: cell-based
Details: anionic transport inhibitor added at 200 µM or 10 µM (FIG. 11), room temperature for 30 minutes, then ionomycin 10 µM; Cl- ion fluorescence indicator MEQ
Procedure: Human CLCA1-expressing plasmid pcDNA-hCLCA1 shown in EXAMPLE 6 was transfected to CHO cells using Gene transfer lyo (manufactured by Wako Pure Chemical Industries, Ltd.) in accordance with the attached manual. The cells were subjected to selective culture for 10 days in MEM-α medium (manufactured by GIBCO BRL) supplemented with 1 mg/ml of neomycin (G418) (manufactured by GIBCO BRL) to obtain the cells grown as human CLCA1 expressing CHO cells. The human CLCA1 expressing CHO cells and parent CHO cells were seeded on a 96-well plate (manufactured by Packard Inc.) coated with 2 µg/ml of fibronectin (manufactured by Itoham Foods, Inc.), respectively, in a concentration of 4 x 10^4 cells/well, followed by culturing at 37°C for 24 hours under 5% CO2. After completion, the culture solution was washed once with a buffer solution containing no Cl^- ions (2.4 mM K2HPO4, 0.6 mM KH2PO4, 10 mM D-glucose, 1 mM MgSO4, 1 mM CaSO4, 135 mM NaNO3, 10 mM HEPES, pH 7.4), and 1 mM of Cl^- ion fluorescence indicator 6-methoxy-N-ethylquinolinium iodide (MEQ, manufactured by Moelcular Probes, Inc.) was added in an amount of 100 µl/well to the culture solution, followed by incubation at 37°C for further 2 hours. The culture solution was further washed twice with a Cl^- ion-containing buffer solution (2.4 mM K2HPO4, 0.6 mM KH2PO4, 10 mM D-glucose, 1 mM MgSO4, 1 mM CaSO4, 135 mM NaCl, 10 mM HEPES, pH 7.4), and then allowed to stand at room temperature for 30 minutes. Each well was replaced by the buffer solution containing no Cl^- ions and ionomycin was added to make the concentration of 10 µM. Immediately thereafter, the fluorescence intensity was measured at an excited wavelength of 355 nm and a measurement wavelength of 460 nm, usingamulti-label counter Wallac1420ARVOsx (manufactured by Amersham Pharmacia Biotech).
When stimulated with 10 µM ionomycin (manufactured by Wako Pure Chemical Industries, Inc.), the fluorescence intensity increased in human CLCA1 expressing CHO cells by about twice, as compared to the parent CHO cells (FIG. 10). […]

Compound	increase of the fluorescence intensity by ionomycin stimulation of human CLCA1 expressing CHO cells
O=C(O)c1cccnc1Nc1cccc(C(F)(F)F)c1 [niflumic acid]	suppressed
O=S(=O)(O)c1cc(N=C=S)ccc1C=Cc1ccc(N=C=S)cc1S(=O)(=O)O [4,4'-diisothiocyanastilbene-2,2'-disulfonic acid]	suppressed
O[C@H](CS)[C@H](O)CS (racemic) [dithiothreitol]	suppressed
